{"source": "paper PMC11373198", "about": "“In vitro efficacy of next-generation dihydrotriazines and biguanides against babesiosis and malaria parasites” (Antimicrobial Agents and Chemotherapy, 2024)", "key": {"B. duncani DHFR-TS [1]": {"target": "T1, B. duncani DHFR-TS (Babesia duncani, UniProt A0AAD9UQZ8)", "T1 sequence (A0AAD9UQZ8 entry or part of it)": "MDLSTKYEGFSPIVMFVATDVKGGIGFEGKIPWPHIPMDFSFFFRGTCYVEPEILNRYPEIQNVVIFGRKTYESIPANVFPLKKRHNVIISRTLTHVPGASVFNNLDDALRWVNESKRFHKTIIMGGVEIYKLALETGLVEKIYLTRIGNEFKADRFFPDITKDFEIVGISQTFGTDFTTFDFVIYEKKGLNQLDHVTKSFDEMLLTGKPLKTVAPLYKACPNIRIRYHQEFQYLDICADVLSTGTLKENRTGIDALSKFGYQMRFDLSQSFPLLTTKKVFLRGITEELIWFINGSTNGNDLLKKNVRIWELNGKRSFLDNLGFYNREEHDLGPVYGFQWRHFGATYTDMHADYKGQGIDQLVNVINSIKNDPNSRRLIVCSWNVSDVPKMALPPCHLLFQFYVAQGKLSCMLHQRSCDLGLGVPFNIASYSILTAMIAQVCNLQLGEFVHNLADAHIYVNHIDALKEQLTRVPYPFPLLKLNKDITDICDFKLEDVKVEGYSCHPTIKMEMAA", "assay": "Enzyme inhibition assay: DHFR activity of purified DHFR-TS", "format": "biochemical", "procedure": "(§1) The inhibition of DHFR activity with selected JPC derivatives was measured as previously described ([59]). Briefly, the purified enzyme (0.1 µM) (supporting information) (Fig. S7) was incubated with increasing concentrations of JPC-2067 or JPC-2056 in a reaction buffer containing 300 µM DHF and 300 µM NADPH. OD340 reduction rate (OD340/min) was measured for further calculation. The % inhibition was calculated using the formula:\n(§2) =1−((OD340/min)sample−(OD340/min)negative control)/((OD340/min)positive control−(OD340/min)negative control)\n(§3) The IC50 was determined from a sigmoidal dose-response curve using GraphPad Prism version 9.1.2.\n(§4) Dihydrofolate reductase-thymidylate synthase (DHFR-TS) gene from B. duncani (BdDHFR-TS BdWA1_001462) and B. microti (BmDHFR-TS BMR1_02g03680) were cloned into pMAL-c4x by GenScript USA Inc. Both enzymes were expressed as fusion proteins with N’-terminal maltose binding protein (MBP) tag. Constructs of pMAL-c4x-BdDHFR-TS and pMAL-c4x-BmDHFR-TS were transformed by heat shock into E. coli BL-21(DE3). E. coli BL-21(DE3) harboring pMAL-c4x-DHFR-TS was grown overnight in 2 ml LB ampicillin (100 µg/mL). Cultures were diluted 100-fold in fresh LB medium with 0.2% glucose and grown to A600 of ~0.5 at 37°C. DHFR-TS expression was induced by the addition of 0.5 mM isopropyl thiogalactoside (IPTG) followed by growth for overnight at 16°C or at room temperature (RT). The cells were harvested by centrifugation (8,000 × g × 10 min, 4°C), washed by resuspension in water, and re-centrifuged. Cells were used directly for purification or kept frozen at -20°C. Prior to enzyme purification, cells were re-suspended in binding buffer containing 25 mM Tris-HCl pH 8, 500 mM NaCl, 0.5% glycerol, and 50mM L-arginine. Cells were supplemented benzonase DNAse (250U/µl) and 3-((3-cholamidopropyl) dimethylammonio)-1-propanesulfonate (CHAPS) (0.002%) and were disrupted by sonication on ice using Omni Sonic Ruptor 400 Ultrasonic Homogenizer (15-sec burst at 70% amplitude, 3 times, with 30-sec cooling intervals). A soluble supernatant was prepared by centrifugation (16,000 × g × 20 min) of the cells sonicate.\n(§5) Recombinant DHFR-TSs were purified from the clear cell extract supernatant using amylose resin (NEB), methotrexate-agarose beads, and in some cases size exclusion chromatography (SEC). Briefly, soluble supernatant was incubated with amylose beads in binding buffer with gentle agitation for 1h at 4°C. Following enzyme adsorption, the affinity matrix was transferred to a column and unbound proteins were removed by washing with binding buffer. Purified enzymes were eluted with elution buffer containing 10 mM maltose. Amylose elution fractions were loaded onto MTX-agarose resin and purified DHFR-TS enzymes were eluted using 2 mM dihydrofolic acid (DHF). […]"}, "B. microti DHFR-TS [2]": {"target": "T2, B. microti DHFR-TS (Babesia microti, UniProt A0A1R4AAV1)", "T2 sequence (A0A1R4AAV1 entry or part of it)": "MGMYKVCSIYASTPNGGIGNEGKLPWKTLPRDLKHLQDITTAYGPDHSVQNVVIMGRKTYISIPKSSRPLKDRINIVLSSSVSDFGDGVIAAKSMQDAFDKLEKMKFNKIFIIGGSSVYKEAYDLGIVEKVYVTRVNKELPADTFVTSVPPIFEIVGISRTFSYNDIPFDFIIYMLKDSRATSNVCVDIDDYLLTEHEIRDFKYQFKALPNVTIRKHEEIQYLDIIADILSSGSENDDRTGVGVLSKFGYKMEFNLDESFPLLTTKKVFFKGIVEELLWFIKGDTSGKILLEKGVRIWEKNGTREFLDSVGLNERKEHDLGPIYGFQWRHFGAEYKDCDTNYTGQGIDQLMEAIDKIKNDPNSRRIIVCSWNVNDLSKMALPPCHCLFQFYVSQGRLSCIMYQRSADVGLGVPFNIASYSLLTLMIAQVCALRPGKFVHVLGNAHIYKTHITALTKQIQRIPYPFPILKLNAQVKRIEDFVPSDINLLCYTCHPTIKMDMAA", "assay": "Enzyme inhibition assay: DHFR activity of purified DHFR-TS", "format": "biochemical", "procedure": "as §1, §2, §3, §4, §5"}, "B. duncani (WA-1) [3]": {"tested_on": "B. duncani (WA-1)", "assay": "In vitro growth inhibition of B. duncani in human erythrocytes (SYBR Green-I)", "format": "cell-based, Babesia duncani", "conditions": "continuous in vitro culture in human erythrocytes, read-out: IC50 B. duncani"}, "[4]": {"tested_on": "human cell lines (HepG2, HCT-116, HEK-293, and HeLa)", "assay": "Cytotoxicity on human cell lines, average / overall, and therapeutic index", "format": "cell-based", "conditions": "up to 900 µM, HCT-116, HepG2, HEK-293"}, "HeLa": {"tested_on": "HeLa", "assay": "Cytotoxicity on human cell line (MTT)", "format": "cell-based", "conditions": "72 h", "procedure": "(§6) HeLa, HepG2, HEK293, and HCT116 cell lines were obtained from the American Type Culture Collection (ATCC) and maintained in Dulbecco’s modified Eagle’s medium (DMEM) (Invitrogen 11995–065) containing 25 mM glucose, 1 mM sodium pyruvate, and supplemented with 5 mM HEPES, 10% FBS, and penicillin-streptomycin (50 U/mL penicillin, 50 µg/mL streptomycin). Cells were seeded in a 96-well tissue culture plate (20,000 cells per well) and allowed to adhere for 24 hours, after which they were treated with a 12-step 2-fold serial dilution of each drug starting at 1 mM as the highest final concentration. Cells maintained in the medium supplemented with either 0.1% or 10% DMSO were used as negative and positive vehicle controls, respectively. The plates were incubated at 37 °C for 72 h, after which each well was incubated with 0.5 mg/mL of MTT reagent (MP Chemicals #02102227) for 4 h in the dark at 37 °C. The formazan crystals formed by living cells were solubilized with the addition of 100 µL of DMSO to each well. We measured the OD590nm using a SpectraMax plate reader. From the obtained OD values, percent cell viability was estimated by normalizing to the mean of 10% DMSO wells (set as 100% toxicity) and mean of the vehicle control wells (set as 0% toxicity). Dose-response curves were plotted using GraphPad Prism version 9.1.2."}, "HEK293": {"tested_on": "HEK293", "assay": "Cytotoxicity on human cell line (MTT)", "format": "cell-based", "conditions": "72 h", "procedure": "as §6"}, "HCT116": {"tested_on": "HCT116", "assay": "Cytotoxicity on human cell line (MTT)", "format": "cell-based", "conditions": "HCT-116, 72 h", "procedure": "as §6"}, "HepG2": {"tested_on": "HepG2", "assay": "Cytotoxicity on human cell line (MTT)", "format": "cell-based", "conditions": "72 h", "procedure": "as §6"}, "B. microti (LabS1)": {"tested_on": "B. microti (LabS1)", "assay": "In vivo efficacy in SCID mouse model of B. microti infection", "set-up": "species or system CB17/SCID mice", "procedure": "Building on the promising efficacy of JPC-2056 against B. duncani parasites in vivo, we extended our investigation to assess the efficacy of this compound against B. microti (ATCC LabS1) in the SCID (severely combined immunodeficient) mouse model of infection following inoculation with a 1 × 10^4 infected erythrocytes.\n(§7) Both C3H/HeJ and CB17/SCID mice aged 5–6 weeks (4 to 5 mice per group in each of the studies described herein) were injected intravenously with (1 × 10^4 iRBCs) of B duncani (WA-1) and B. microti (LabS1) parasites, respectively. The infected mice were treated by oral gavage over 10 days (DPI −1 to 10). During the treatment, each mouse received 100 µL of either vehicle (PEG-400) or prodrug JPC-2056 (30 mg/kg). Percent parasitemia was determined by counting at least 3,000 RBCs from Giemsa-stained […] blood smears."}, "B. duncani (WA-1) [5]": {"tested_on": "B. duncani (WA-1)", "assay": "In vivo efficacy in mouse model of lethal B. duncani infection", "set-up": "species or system C3H/HeJ mice", "procedure": "The finding that JPC-2067 is effective against B. duncani in vitro led us to investigate the activity of its prodrug JPC-2056 in the mouse model of lethal infection (C3H/HeJ mice) ([57]). […] To evaluate the efficacy of JPC-2056, two groups of 5 female mice each were infected with 1 × 10^4 B. duncani-infected erythrocytes and at day 1 post-infection (DPI-1) received either a vehicle (PEG-400) or 30 mg/kg of JPC-2056 administered orally once a day for 10 days. […] However, parasitemia in these mice continued to increase over time reaching peak levels at DPI-12 (Fig. 3A and B). These animals succumbed to lethal B. duncani infection at DPI-13 (Fig. 3A and C).\nas §7"}, "B. duncani DHFR-TS [6]": {"target": "T1, B. duncani DHFR-TS", "set-up": "method as in PMID 37055610", "conditions": "recent studies; cited from earlier work"}, "B. duncani": {"tested_on": "B. duncani", "set-up": "method as in PMID 37055610", "conditions": "previous studies; read-out: IC50 against B. duncani; cited from earlier work"}, "[7]": {"conditions": "in vivo; cited from earlier work"}, "B. microti DHFR-TS [8]": {"target": "T2, B. microti DHFR-TS", "set-up": "method as in PMID 37055610", "conditions": "recent studies; cited from earlier work"}, "[9]": {"conditions": "0.1 µM enzyme, 300 µM DHF, 300 µM NADPH"}, "[10]": {"conditions": "30 mg/kg orally once a day for 10 days"}}, "note": "“Also recorded” adds a separate entry of the source. Where two headings read alike, the source gives them in different places.", "data": [{"smiles": "CC1(C)NC(=N)NC(=N)N1OCCCOc1ccc(OC(F)(F)F)cc1Cl", "note": "[JPC-2067]", "values": [{"measurement": "EC50", "setting": "B. duncani DHFR-TS [1]; [9]", "value": 0.001, "unit": "µM"}, {"measurement": "EC50", "setting": "B. microti DHFR-TS [2]; [9]", "value": 0.0147, "unit": "µM"}, {"measurement": "IC50", "setting": "B. duncani (WA-1) [3]; Babesia duncani, Erythrocyte", "value": "0.0089 ± 0.002", "unit": "µM"}, {"measurement": "IC50", "setting": "B. duncani (WA-1) [3]", "value": 0.00893, "unit": "µM"}, {"measurement": "cytotoxicity (effect on human cell lines)", "setting": "[4]", "value": "no discernible effect"}, {"measurement": "IC50", "setting": "HeLa", "value": "> 900", "unit": "µM"}, {"measurement": "IC50", "setting": "HEK293", "value": 1000, "unit": "µM"}, {"measurement": "IC50", "setting": "HCT116", "value": 1000, "unit": "µM"}, {"measurement": "IC50", "setting": "HepG2", "value": 1150, "unit": "µM"}]}, {"smiles": "CC(C)NC(=N)NC(=N)NOCCCOc1ccc(OC(F)(F)F)cc1Cl", "note": "[JPC-2056]", "values": [{"measurement": "inhibitory activity against B. duncani DHFR-TS", "setting": "B. duncani DHFR-TS [1]; Fig. S3A", "value": "no discernible inhibitory activity"}, {"measurement": "inhibitory activity against B. microti DHFR-TS", "setting": "B. microti DHFR-TS [2]; Fig. S3B", "value": "no discernible inhibitory activity"}, {"measurement": "adverse effects", "setting": "B. microti (LabS1); 30 mg/kg once a day for 10 days", "value": "without observable adverse effects"}, {"measurement": "outcome of B. microti infection", "setting": "B. microti (LabS1); 30 mg/kg once a day for 10 days (DPI-1 to 10)", "value": "clearance of infection with no parasites detected up to DPI-45; also recorded: elimination of parasites"}, {"measurement": "IC50", "setting": "B. duncani (WA-1) [3]; Babesia duncani, Erythrocyte", "value": "0.8694 ± 0.004", "unit": "µM"}, {"measurement": "IC50", "setting": "B. duncani (WA-1) [3]", "value": 0.869, "unit": "µM"}, {"measurement": "cytotoxicity (effect on human cell lines)", "setting": "[4]", "value": "no discernible effect"}, {"measurement": "day animals succumbed to lethal infection", "setting": "B. duncani (WA-1) [5]; [10]", "value": 13, "unit": "DPI"}, {"measurement": "parasite emergence", "setting": "B. duncani (WA-1) [5]; [10]", "value": "delay in parasite emergence"}, {"measurement": "parasitemia compared to vehicle-treated mice", "setting": "B. duncani (WA-1) [5]; 30 mg/kg orally once a day for 10 days (DPI-1 to 10)", "value": "reduced peak parasitemia"}, {"measurement": "IC50", "setting": "HeLa", "value": "> 900", "unit": "µM"}, {"measurement": "IC50", "setting": "HEK293", "value": 1000, "unit": "µM"}, {"measurement": "IC50", "setting": "HCT116", "value": 1000, "unit": "µM"}, {"measurement": "IC50", "setting": "HepG2", "value": 1000, "unit": "µM"}]}, {"smiles": "CC1(C)N=C(N)N=C(N)N1OCCCOc1cc(Cl)c(Cl)cc1Cl", "note": "[WR99210]", "values": [{"measurement": "inhibition of B. duncani DHFR-TS activity", "setting": "B. duncani DHFR-TS [6]", "value": "inhibits the activity"}, {"measurement": "IC50", "setting": "B. duncani", "value": 0.0005, "unit": "µM"}, {"measurement": "bioavailability", "setting": "[7]", "value": "poor bioavailability"}, {"measurement": "gastrointestinal tolerability", "setting": "[7]", "value": "caused gastrointestinal complications"}, {"measurement": "inhibition of B. microti DHFR-TS activity", "setting": "B. microti DHFR-TS [8]", "value": "inhibits the activity"}]}]}
